In patent US5258386A (priority 1991, dated 1993):

Experiments:
[1] = test system: maximal electroshock seizures (MES); experiment: Maximal electroshock seizure (MES) assay in rats, s.c. injection, tonic hindlimb extension (THE); format: in vivo, Male Sprague-Dawley rats; details: for % Responding (THE): s.c.; for ED50: sc, read-out: Anticonvulsant ED50
Method: The anticonvulsant activity of the present compounds was assessed by the method of inducing maximal electroshock seizures (MES) in rats using the standard testing protocol conditions hereinafter described:
Animals. Male Sprague-Dawley rats weighing 200-250 g obtained from Zivic Miller Laboratories, Alison Park, Pa., were used for all experiments. Upon delivery the animals were kept in individual pens housed in a temperature controlled laboratory. A standard 12-hour light-dark cycle was maintained. The animals were given food and water ad libitum.
Maximal electroshock seizure (MES) assay. Supramaximal (tonic hindlimb extension) seizures were induced in test rats by means of an electric shock apparatus. A current of 60 Hz and 50 mA was delivered transauricularly through miniature alligator clips attached to the pinna of each ear for 2.0 seconds. […] In general, MES causes a generalized convulsion characterized by an initial tonic forelimb extension (TFE) progressing immediately to tonic hindlimb extension (THE) followed by clonic jerking. The presence or absence of THE was recorded for each MES convulsion.
Experimental protocol. Two groups of animals with n=10 for each group were tested under the conditions described above. Compounds were administered to each test animal by a single subcutaneous injection. There were no signs of overt sedation, ataxia or motor impairment at any time during the MES assay after drug injection.

[2] = U.S. Pat. No. 4,552,962; cited from earlier work
[3] = U.S. Pat. Nos. 4,898,860 and 4,906,638; cited from earlier work
[4] = in vivo; cited from earlier work
[5] = elevated doses; cited from earlier work
[6] = in vivo, demethylation; dextrorphan is the major metabolite in man; cited from earlier work
[7] = Proconvulsant activity of dextromethorphan; details: doses above about 60 mg/kg, in mammals
[8] = in vivo; cited from earlier work; remark: listed apart in the source

With `CN(C)c1ccc2c(c1)C13CCCCC1C(C2)N(C)CC3` (single isomer, unassigned; (+)) [Compound 7, (+)-3,3-Dimethylamino-17-methylmorphinan sesquitartrate] the “% Responding (THE)” value ([1]; 25 mg/kg, rat MES) was 65% and the ED50 ([1]; rat MES, single s.c. injection) was over 25 mg/kg.
In the case of `COc1ccc2c(c1)[C@@]13CCCC[C@H]1[C@@H](C2)N(C)CC3` [Compound 1, (+)-3-methoxy-N-methylmorphinan], the “% Responding (THE)” value ([1]; 15 mg/kg, rat MES) is reported as 70%, the “% Responding (THE)” value ([1]; 30 mg/kg, rat MES) is reported as 70% and the “% Responding (THE)” value ([1]; 60 mg/kg, rat MES) is reported as 30%. For the same compound, the inhibits seizures ([1]; about 60 mg/kg) was “about 70%”, the ED50 ([1]; rat MES, single s.c. injection) was 38 mg/kg and the antitussive activity [2] was “potent antitussive agent”. The “potentiating effect on antiepileptic or antiseizure compounds” value [3] was “potentiating effect”, the anticonvulsant activity [4] was “not very potent as an anticonvulsant agent” and the proconvulsant [5] was “becomes proconvulsant”. The metabolism to dextrorphan [6] was “metabolizes rapidly by demethylation in vivo” and the proconvulsant activity [7] was “exhibits proconvulsant activity”.
For `CN1CC[C@]23CCCC[C@H]2[C@H]1Cc1ccc(O)cc13` [Compound 2, (+)-3-hydroxy-N-methylmorphinan], the “Anticonvulsant ED50” value ([1]; rat MES, single s.c. injection) is given as 5 mg/kg, the anticonvulsant activity [4] is given as “some anticonvulsant activity” and the behavioral side effects [8] is given as “harmful behavioral side effects”.
For `CN1CC[C@]23CCCC[C@H]2[C@H]1Cc1ccc(N)cc13.Cl.Cl` [Compound 5, (+)-3-Amino-17-methylmorphinan di-HCl], the “% Responding (THE)” value ([1]; 12.5 mg/kg, rat MES) was 100%, the “% Responding (THE)” value ([1]; 25 mg/kg, rat MES) was 40% and the ED50 ([1]; rat MES, single s.c. injection) was 25 mg/kg.
